In patent publication US8598383B2, “Pharmaceutical composition for treating or preventing degenerative and inflammatory diseases” (Neurotech Pharmaceuticals Co., Ltd., priority 2006, dated 2013):

What was measured:
[1] = tested on: TNF-alpha in exudation of air pouch; assay: Zymosan air pouch inflammation model, TNF-alpha (ELISA); format: in vivo; settings: over 30 mg/kg, once oral 1 hour before zymosan, 4 hours later
Procedure: (§1) FIG. 12 is results showing efficacy of compound 2 through the levels of TNF-alpha induced by zymosan, one of arthritis animal models. 1% zymosan was administered with air pouch, and compound 2 was once orally administered according to indicated dose 1 hour before administration of zymosan. The level of TNF-alpha in an exudation of air pouch was evaluated by ELISA method 4 hours later.
(§2) Anti-inflammation effect of compound 2 in arthritis model was evaluated with zymosan. 0.5 ml of 1% zymosan was administered with air pouch, and 3-300 mg/kg of compound 2 was once orally administered 1 hour before administration of zymosan. Edema, a main symptom of arthritis, and the level of cytokine were observed 4 hours later.

[2] = tested on: IL-1beta gene expression in BV2 cell line; assay: Suppressing effect on gene expression (RT-PCR), IL-1beta; format: cell-based; settings: Mus musculus, BV-2, 24 h, gene expression vs LPS control, BV2, 24 hours
Procedure: Effects of the 2-hydroxybenzoic acid derivatives on iNOS gene expression in BV2 cell line were evaluated. 100 mm dish was inoculated with 1×10^6 cells of BV2 cell line, and treated with both LPS, inflammation-inducing material, and 1˜100 uM of the 2-hydroxybenzoic acid derivative of the present invention, together, in regular concentration interval. After 24 hours of incubation, RNA was extracted. Extracted RNA was used in reverse transcription and polymerase chain reaction, and expression patterns of TNF-alpha, IL-1beta and iNOS were compared.

gastric mucous membrane = assay: Safety test about induction of gastric mucous membrane damage; format: in vivo; settings: oral, up to 1,000 mg/kg, aspirin as control
Procedure: Test samples were orally administered at different doses to evaluate the degree of the gastric mucous membrane damage. Aspirin was used as control.
FIG. 2 is results showing degrees of the gastric mucous membrane damage. Test samples were orally administered at indicated doses. […] Indomethacine, ibuprofen and celecoxib were used as control.
Conventional NSAIDs have side effects causing damages to the gastric mucous membrane. Therefore, it was evaluated whether compound 2 having anti-inflammatory effect causes the gastric damage or not. 30, 100 or 300 mg/kg of aspirin was orally administered as control.

[3] = tested on: thermal hyperalgesia induced by carrageenan; assay: Carrageenan-induced thermal hyperalgesia; format: in vivo, rat
Procedure: FIG. 11 is results showing efficacy of compound 2 through thermal hyperalgesia induced by carrageenan, one of arthritis animal models. 2% carrageenan was intradermally injected into hindpaw of rat to induce thermal hyperalgesia.
Analgesic effect of compound 2, one example of the 2-hydroxybenzoic acid derivative, was evaluated in arthritis model. 2% carrageenan was intradermally injected into left pes of rat, and 3-300 mg/kg of compound 2 was orally administered to evaluate effect of compound 2 on thermal hyperalgesia of arthritis model.

[4] = tested on: gastric bleeding induced by 60% EtOH/150 mM HCl; assay: Gastritis induced by alcohol and hydrochloric acid; format: in vivo, rat; settings: oral
Procedure: FIG. 8 is results showing protecting effect of compound on gastrointestinal bleeding caused by alcohol/hydrochloric acid (EtOH/HCl). A is a picture of normal rat stomach. B is a picture of rat stomach, wherein gastrointestinal bleeding was caused by oral administration of 60% EtOH/150 mM HCl after 200˜250 g of rat was fasted for 24 hours. C is a picture of rat stomach, wherein rat was pre-treated with compound 230 minutes before administration of alcohol/HCl, and stomach was taken out 90 minutes after gastrointestinal bleeding. D is a graph quantifying damaged area to evaluate the degree of stomach injury.
Effect of the 2-hydroxybenzoic acid derivative on gastritis induced by alcohol and hydrochloric acid was evaluated. 200˜250 g of male SD rat was fasted for 24 hours, and 60% EtOH/150 mM HCl was orally administered to induce gastric bleeding (gastric injury). Compound 2 was orally administered according to indicated dose 30 minutes before the gastric bleeding, and stomach was taken out 90 minutes after gastric bleeding to evaluate the degree of gastric injury.

TNF-α and IL-1β mRNA = assay: Cytokine mRNA expression in G93A mouse (RT-PCR); format: in vivo; settings: 5 mg/kg/day in chow, 16 week-old, lumbar segments
Procedure: FIG. 30 is results showing the levels of mRNA of inflammatory cytokines (TNF-α and IL-1β), markers of inflammation, in G93A mouse. RT-PCR (Reverse Transcription-Polymerase Chain Reaction) was used.
Lumbar segments of 16 week-old G93A mice fed with general chow only, and 16 week-old G93A mice fed with chow containing 5 mg/kg/day of compound 2 were extracted and their RNA were separated. The mRNA expression degrees of TNF-α and IL-1β, inflammatory cytokines, were evaluated through RT-PCT.

[5] = tested on: IL-6 production in BV2 cell line; assay: Suppressing effect on production of cytokine (ELISA), IL-6; format: cell-based; settings: Mus musculus, BV-2, level in medium, LPS + 100 uM of sample, 24 hours
Procedure: (§3) Effects of the 2-hydroxybenzoic acid derivatives on production of cytokine in BV2 cell line were evaluated. 24-well plate was inoculated with 1×10^6 cells of BV2 cell line, and treated with both LPS, inflammation-inducing material, and 100 uM of sample (the 2-hydroxybenzoic acid derivative or comparative drug), together. After 24 hours of incubation, culture medium was collected. The levels of cytokines, TNF-α and IL-6, in the medium were evaluated by ELISA method.

[6] = tested on: brain-blood vessel barrier; assay: Brain-blood vessel barrier protection in APP/PS1 mice (Evans blue); format: in vivo, mouse; settings: chow from 2 to 5 month-old; compound 2 25 mg/kg/day, ibuprofen 62.5 mg/kg/day
Procedure: Damage of brain blood vessel is well known in Alzheimer's disease. […] of 2% Evans blue dye was administered into blood vessel of 5 month-old APP/PS1 dementia mouse.

[7] = tested on: IL-1alpha in exudation of air pouch; assay: Zymosan air pouch inflammation model, IL-1alpha (ELISA); format: in vivo; settings: 3-300 mg/kg once oral 1 hour before zymosan, 4 hours later
Procedure: as §1, with “13” for “12”, “graphs” for “results”, “how much” for “efficacy of”, “decreases” for “through”, “level” for “levels”, “IL-1alpha” for “TNF-alpha”
as §2

TNF-α mRNA in AGS cell = assay: Expression of TNF-α mRNA in ethanol-treated AGS cells (RT-PCR); format: cell-based, human; settings: 1-100 uM, ethanol 24 hours
Procedure: FIG. 7 is a picture showing the expression degree of TNF-α mRNA. Cultured AGS cell was treated with 25 mM of alcohol for 24 hours, alone or with compound 2 having indicated concentration. Then, mRNA was extracted and evaluated by RT-PCR method.
As one marker of inflammation, the expression level of TNF-α mRNA was evaluated by RT-PCR method. Samples treated with ethanol for 24 hours were used.

[8] = tested on: TNF-α production in BV2 cell line; assay: Suppressing effect on production of cytokine (ELISA), TNF-α; format: cell-based; settings: Mus musculus, BV-2, level in medium, LPS + 100 uM of sample, 24 hours
Procedure: as §3

O=C(O)c1cc(NCCc2ccc(C(F)(F)F)cc2)ccc1O [compound 2, 2-hydroxy-5-[2-(4-trifluoromethyl-phenyl)-ethylamino]-benzoic acid]
level of TNF-alpha [1]: decreased the level of TNF-alpha more than control
inhibition at 100 µM [2]: 75.1%
gastric mucous membrane damage (gastric mucous membrane): did not cause damage to the gastric mucous membrane
gastric mucous membrane damage (gastric mucous membrane; listed as Compound 2): did not cause the gastric side effect
thermal hyperalgesia, comparison with ibuprofen ([3]; 100 mg treatment): equivalent level of decreasing effect with 50 mg/kg of ibuprofen
reduction of thermal hyperalgesia ([3]; 300 mg/kg oral): over 90%
thermal hyperalgesia ([3]; 3-300 mg/kg oral): decreased thermal hyperalgesia in a dose-dependent manner
toxicity in EtOH/HCl gastritis test [4]: did not show any toxicity
protection against gastric bleeding ([4]; 30 minutes before EtOH/HCl, stomach taken out 90 minutes after): protected stomach against gastric bleeding induction
mRNA expression of TNF-α and IL-1β (TNF-α and IL-1β mRNA): effectively reduced inflammatory cytokines
inhibition at 100 µM [5]: 70.3%
protecting effect on brain-blood vessel barrier [6]: protecting effects on brain-blood vessel barrier were shown
level of IL-1alpha [7]: decreased in a dose-dependent manner
expression of TNF-α mRNA (TNF-α mRNA in AGS cell): completely suppressed
inhibition at 100 µM [8]: 62.3%
